Measured values from ChEMBL document CHEMBL1201862, “PubChem BioAssay data set” (2004).
Active and inactive are the calls of the source.

Experiments:
[1] = inhibitors of firefly luciferase expression or activity, dose response, H4 neuroglioma cells, luminescence (AID 1990); type: functional, cell-based
[2] = Luminescence Cell-Based Dose Response HTS to Identify Inhibitors of 5'UTR Stem-Loop Driven Prion Protein mRNA Translation in H4 Neuroglioblastoma Cells. [Related pubchem assays: 1827 (Project Summary), 1813 (Primary HTS)]; type: functional
[3] = inhibitors of SNCA 5'UTR-driven reporter translation, confirmation, H4 neuroglioma cells, luminescence (AID 1988); type: functional, cell-based
[4] = ARNT/TACC3 interaction disruptors, potency, confirmation, biochemical, AlphaScreen, cherry-picked samples (AID 651703); type: functional, Homo sapiens;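 note: His-tagged ARNT PAS-B domain paired with GST-TACC3 E629A dimer coactivator fragment; potency of inhibitors that break up the complex and lower AlphaScreen signal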
[5] = target: T1, Probable nicotinate-nucleotide adenylyltransferase (Staphylococcus aureus (strain N315), UniProt P65502); type: functional, Staphylococcus aureus subsp. aureus N315;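 for IC50 Mean: confirmatory dose-response retesting of NadD inhibitor hits first found in an ultra-high-throughput screen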
[6] = target: T1, Probable nicotinate-nucleotide adenylyltransferase; type: functional, Staphylococcus aureus subsp. aureus N315; details: read-out: IC50_Mean
[7] = target: T2, Low molecular weight phosphotyrosine protein phosphatase (Homo sapiens, UniProt P24666); type: functional; details: read-out: IC50_Mean;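 note: Dose-response confirmation assay measuring inhibition of LMPTP enzyme activity by fluorescence intensity read-out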
T2 sequence (P24666 whole entry): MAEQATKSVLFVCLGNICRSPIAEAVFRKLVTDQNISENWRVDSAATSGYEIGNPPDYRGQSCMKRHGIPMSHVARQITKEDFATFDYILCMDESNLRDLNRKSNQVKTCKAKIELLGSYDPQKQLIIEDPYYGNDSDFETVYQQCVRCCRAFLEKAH

[8] = miR-122 activators in hepatoma reporter cells, dose response, cell-based, Huh7 psiCHECK-miR122, Renilla luciferase, cherry-picked (AID 651956); type: functional;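 note: huh7 hepatoma cells stably carrying a psiCHECK-2 miR-122 sensor plasmid; renilla luciferase signal reporting endogenous miR-122 activity after 48 h compound exposure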
[9] = target: T3, Mannose-6-phosphate isomerase (Homo sapiens, UniProt P34949); assay: human PMI inhibitors, high substrate, primary screen, biochemical, fluorescence intensity, high mannose 6-phosphate (AID 1220)
T3 sequence (P34949 whole entry): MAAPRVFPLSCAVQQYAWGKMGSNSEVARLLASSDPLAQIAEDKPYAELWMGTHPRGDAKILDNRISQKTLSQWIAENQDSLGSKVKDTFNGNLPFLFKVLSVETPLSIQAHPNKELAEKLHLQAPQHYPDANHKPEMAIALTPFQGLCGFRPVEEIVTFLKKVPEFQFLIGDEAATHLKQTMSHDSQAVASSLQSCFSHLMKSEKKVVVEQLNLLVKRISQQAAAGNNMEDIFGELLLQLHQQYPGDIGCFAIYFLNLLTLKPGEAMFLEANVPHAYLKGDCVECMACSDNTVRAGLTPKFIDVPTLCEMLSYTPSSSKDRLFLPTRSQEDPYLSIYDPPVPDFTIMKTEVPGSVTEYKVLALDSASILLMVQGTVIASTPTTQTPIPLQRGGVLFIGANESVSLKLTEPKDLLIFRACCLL

[10] = target: Glucose-6-phosphate 1-dehydrogenase (Homo sapiens, UniProt P11413); assay: human G6PD enzyme inhibitors, dose response, selectivity assay for P. falciparum G6PD inhibitor project, biochemical, fluorescence (AID 504792); type: functional
[11] = target: Hepatocyte nuclear factor 4-alpha (Homo sapiens, UniProt P41235); type: functional, cell-based;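 note: biochemical luminescence-based dose-response counterscreen measuring inhibition of HNF4 dimerization, run alongside a screen for blockers of ABHD5–perilipin-5 interaction; split luciferase complementation of HNF4 fusion proteins in cell lysate measuring dimerization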
[12] = Luminescence Cell-Based Dose Confirmation HTS to Identify Activators of 5'UTR Stem-Loop Driven Alpha-Synuclein mRNA Translation in H4 Neuroglioblastoma Cells. [Related pubchem assays: 1829 (Project Summary), 1814 (Primary HTS)]; type: functional
[13] = Luminescence Cell-Based Dose Response HTS to Identify Activators of Luciferase Translation or Activity in H4 […] Cells. [Related pubchem assays: 1829 (Project Summary), 1814 (Primary HTS)]; type: functional
H4 = assay: Luminescence Cell-Based Dose Response HTS to Identify Activators of 5'UTR Stem-Loop Driven Prion Protein mRNA Translation in H4 Neuroglioblastoma Cells. [Related pubchem assays: 1829 (Project Summary), 1814 (Primary HTS)]; type: functional; details: Homo sapiens
[14] = target: SWI/SNF-related matrix-associated actin-dependent regulator of chromatin subfamily A member 2 (Homo sapiens, UniProt P51531); assay: Luminescence-based cell-based high throughput dose response assay to identify activators of the function of SWI/SNF related, matrix associated, actin dependent regulator of chromatin, subfamily a, member 2 (SMARCA2, BRM).; type: functional
[15] = Counterscreen for activators of the function of SWI/SNF related, matrix associated, actin dependent regulator of chromatin, subfamily a, member 2 (SMARCA2, BRM): Luminescence-based cell-based high throughput dose response assay to identify non-selective compounds using the VP16 reporter assay.; type: functional
[16] = HeLa cell cytotoxicity, dose response, cytotoxicity control for MgcRacGAP inhibitor project (AID 624300); type: functional
[17] = target: T4, Rac GTPase-activating protein 1 (Homo sapiens, UniProt Q9H0H5); assay: MgcRacGAP GTPase-activating activity inhibitors, confirmation, biochemical, ADP Hunter fluorescence, primary and confirmatory (AID 624330); type: functional
T4 sequence (Q9H0H5 whole entry): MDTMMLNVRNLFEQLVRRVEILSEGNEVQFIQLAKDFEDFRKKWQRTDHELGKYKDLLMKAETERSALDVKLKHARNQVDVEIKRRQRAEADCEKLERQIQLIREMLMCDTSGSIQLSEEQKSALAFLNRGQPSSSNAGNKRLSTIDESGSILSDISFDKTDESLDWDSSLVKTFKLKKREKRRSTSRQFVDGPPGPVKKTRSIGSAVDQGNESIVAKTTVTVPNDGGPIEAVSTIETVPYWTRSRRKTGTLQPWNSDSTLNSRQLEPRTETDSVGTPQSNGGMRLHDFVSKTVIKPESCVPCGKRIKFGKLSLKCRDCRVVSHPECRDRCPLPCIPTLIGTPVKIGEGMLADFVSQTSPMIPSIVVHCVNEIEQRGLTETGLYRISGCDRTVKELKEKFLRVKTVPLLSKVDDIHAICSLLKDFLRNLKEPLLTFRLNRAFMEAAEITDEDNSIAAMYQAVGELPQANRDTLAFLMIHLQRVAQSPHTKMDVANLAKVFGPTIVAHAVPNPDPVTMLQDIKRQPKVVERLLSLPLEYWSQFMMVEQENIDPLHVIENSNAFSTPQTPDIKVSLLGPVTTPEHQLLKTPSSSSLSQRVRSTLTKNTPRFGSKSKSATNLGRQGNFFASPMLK

[18] = target: Adenosylmethionine-8-amino-7-oxononanoate aminotransferase (Mycobacterium tuberculosis, UniProt P9WQ81); assay: Mycobacterium tuberculosis BioA enzyme inhibitor Measured in Biochemical System Using Plate Reader - 2163-02_Inhibitor_Dose_CherryPick_Activity.; type: functional, Mycobacterium tuberculosis UT205
HEK293 = assay: inhibitors of LMP1-driven NF-kB reporter, dose response, cell-based, HEK293, luciferase, cherry-pick (AID 588343); type: functional; details: Homo sapiens
Interleukin-8 [19] = target: T5, Interleukin-8 (Homo sapiens, UniProt P10145); assay: Dose Response confirmation of uHTS small molecule hits for cystic fibrosis induced NFkb Inhibitors in a TNFa-induced IL8 counterscreen.; type: functional; details: read-out: IC50_Mean
T5 sequence (P10145 whole entry): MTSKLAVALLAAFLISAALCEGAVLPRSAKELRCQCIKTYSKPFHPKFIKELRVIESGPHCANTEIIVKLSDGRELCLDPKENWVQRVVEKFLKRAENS

Interleukin-8 [20] = target: T5, Interleukin-8; assay: Dose Response confirmation of uHTS small molecule hits for cystic fibrosis induced NFkb Inhibitors in a PAF-induced IL8 counterscreen.; type: functional; details: read-out: IC50_Mean
[21] = HEp-2 cell cytotoxicity, dose response, cytotoxicity control for RSV inhibitor project, HTS (AID 2410); type: functional; details: human respiratory syncytial virus
cells = type: functional, cell-based
[22] = target: T6, Nuclear receptor subfamily 0 group B member 1 (Homo sapiens, UniProt P51843); type: functional, cell-based;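 note: HEK293T cells transfected with SF-1 and DAX-1 plus StAR promoter luciferase reporter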
T6 sequence (P51843 whole entry): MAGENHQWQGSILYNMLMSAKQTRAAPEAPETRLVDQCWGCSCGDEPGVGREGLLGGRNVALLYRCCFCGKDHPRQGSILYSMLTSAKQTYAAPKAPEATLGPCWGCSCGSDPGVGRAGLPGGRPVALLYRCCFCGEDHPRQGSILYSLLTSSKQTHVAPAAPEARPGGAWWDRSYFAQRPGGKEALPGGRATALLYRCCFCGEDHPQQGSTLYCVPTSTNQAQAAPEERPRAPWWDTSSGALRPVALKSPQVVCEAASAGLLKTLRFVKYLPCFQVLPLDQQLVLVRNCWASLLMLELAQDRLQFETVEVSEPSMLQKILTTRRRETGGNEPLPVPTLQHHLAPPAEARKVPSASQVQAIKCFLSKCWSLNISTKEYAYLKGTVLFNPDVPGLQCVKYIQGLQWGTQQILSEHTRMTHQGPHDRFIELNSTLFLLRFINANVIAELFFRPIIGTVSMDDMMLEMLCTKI

[23] = target: T7, Methionyl-tRNA synthetase, putative (Trypanosoma brucei brucei, UniProt Q38C91); type: functional, Trypanosoma brucei brucei strain 927/4 GUTat10.1
T7 sequence (Q38C91 whole entry): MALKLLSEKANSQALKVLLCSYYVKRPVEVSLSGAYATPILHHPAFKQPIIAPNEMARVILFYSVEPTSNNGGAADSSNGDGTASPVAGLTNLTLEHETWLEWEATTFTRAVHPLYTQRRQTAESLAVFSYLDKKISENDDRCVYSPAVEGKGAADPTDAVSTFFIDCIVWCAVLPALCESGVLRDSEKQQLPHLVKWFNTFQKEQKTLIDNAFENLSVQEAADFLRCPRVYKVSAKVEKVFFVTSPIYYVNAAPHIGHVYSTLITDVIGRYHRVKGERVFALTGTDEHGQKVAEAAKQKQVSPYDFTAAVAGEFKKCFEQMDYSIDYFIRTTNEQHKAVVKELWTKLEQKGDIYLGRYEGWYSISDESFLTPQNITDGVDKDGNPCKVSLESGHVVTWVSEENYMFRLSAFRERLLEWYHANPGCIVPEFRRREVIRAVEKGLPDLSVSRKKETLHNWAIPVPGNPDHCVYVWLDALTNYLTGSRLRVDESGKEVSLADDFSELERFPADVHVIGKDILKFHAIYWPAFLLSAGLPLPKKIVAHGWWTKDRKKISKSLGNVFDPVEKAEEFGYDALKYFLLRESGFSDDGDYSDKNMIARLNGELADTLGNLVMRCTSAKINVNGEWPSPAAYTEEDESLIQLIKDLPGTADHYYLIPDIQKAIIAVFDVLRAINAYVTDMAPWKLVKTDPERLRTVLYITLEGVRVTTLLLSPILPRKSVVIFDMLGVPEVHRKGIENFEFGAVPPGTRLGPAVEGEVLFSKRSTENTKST

[24] = Counterscreen for inhibitors of Trypanosoma brucei methionyl tRNA synthetase (MetRS): Luminescence-based cell-based high throughput dose response assay to identify compounds that are cytotoxic to Jurkat human T lymphocyte cells.; type: functional
[25] = target: T7, Methionyl-tRNA synthetase, putative; type: functional, Trypanosoma brucei brucei strain 927/4 GUTat10.1; remark: listed apart in the source

Chain of Adenosylmethionine-8-amino-7-oxononanoate aminotransferase (P9WQ81 whole entry): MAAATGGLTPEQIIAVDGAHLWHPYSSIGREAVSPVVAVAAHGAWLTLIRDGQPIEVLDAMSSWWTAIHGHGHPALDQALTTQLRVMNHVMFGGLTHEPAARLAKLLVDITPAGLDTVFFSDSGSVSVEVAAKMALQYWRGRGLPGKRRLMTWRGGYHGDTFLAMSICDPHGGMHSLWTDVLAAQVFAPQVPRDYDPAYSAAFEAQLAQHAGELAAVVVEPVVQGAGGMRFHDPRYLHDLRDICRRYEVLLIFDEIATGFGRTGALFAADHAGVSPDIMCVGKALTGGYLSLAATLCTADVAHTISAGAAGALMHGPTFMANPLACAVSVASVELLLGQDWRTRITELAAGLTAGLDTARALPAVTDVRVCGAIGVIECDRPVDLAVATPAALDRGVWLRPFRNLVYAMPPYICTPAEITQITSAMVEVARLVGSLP
Chain of Hepatocyte nuclear factor 4-alpha (P41235 whole entry, the tested form may be a part): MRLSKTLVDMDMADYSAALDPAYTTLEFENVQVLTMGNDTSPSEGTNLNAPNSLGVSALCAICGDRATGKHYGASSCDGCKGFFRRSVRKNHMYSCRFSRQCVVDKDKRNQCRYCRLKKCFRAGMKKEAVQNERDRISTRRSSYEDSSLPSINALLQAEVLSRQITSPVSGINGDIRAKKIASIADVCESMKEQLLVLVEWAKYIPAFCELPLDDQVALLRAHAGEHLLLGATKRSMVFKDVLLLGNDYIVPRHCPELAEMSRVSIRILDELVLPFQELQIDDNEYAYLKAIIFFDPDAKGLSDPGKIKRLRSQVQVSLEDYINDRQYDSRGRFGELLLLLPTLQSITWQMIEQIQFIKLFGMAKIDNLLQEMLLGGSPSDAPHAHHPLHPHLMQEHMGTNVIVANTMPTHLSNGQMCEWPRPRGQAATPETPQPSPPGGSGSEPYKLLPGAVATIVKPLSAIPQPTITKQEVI
T1 sequence (P65502 whole entry): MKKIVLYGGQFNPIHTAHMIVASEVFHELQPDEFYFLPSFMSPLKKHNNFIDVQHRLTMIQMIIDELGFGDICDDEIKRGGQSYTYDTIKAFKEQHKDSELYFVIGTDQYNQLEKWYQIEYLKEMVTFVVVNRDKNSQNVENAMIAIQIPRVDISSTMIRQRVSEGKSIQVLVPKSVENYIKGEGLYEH
Chain of SWI/SNF-related matrix-associated actin-dependent regulator of chromatin subfamily A member 2 (P51531 whole entry): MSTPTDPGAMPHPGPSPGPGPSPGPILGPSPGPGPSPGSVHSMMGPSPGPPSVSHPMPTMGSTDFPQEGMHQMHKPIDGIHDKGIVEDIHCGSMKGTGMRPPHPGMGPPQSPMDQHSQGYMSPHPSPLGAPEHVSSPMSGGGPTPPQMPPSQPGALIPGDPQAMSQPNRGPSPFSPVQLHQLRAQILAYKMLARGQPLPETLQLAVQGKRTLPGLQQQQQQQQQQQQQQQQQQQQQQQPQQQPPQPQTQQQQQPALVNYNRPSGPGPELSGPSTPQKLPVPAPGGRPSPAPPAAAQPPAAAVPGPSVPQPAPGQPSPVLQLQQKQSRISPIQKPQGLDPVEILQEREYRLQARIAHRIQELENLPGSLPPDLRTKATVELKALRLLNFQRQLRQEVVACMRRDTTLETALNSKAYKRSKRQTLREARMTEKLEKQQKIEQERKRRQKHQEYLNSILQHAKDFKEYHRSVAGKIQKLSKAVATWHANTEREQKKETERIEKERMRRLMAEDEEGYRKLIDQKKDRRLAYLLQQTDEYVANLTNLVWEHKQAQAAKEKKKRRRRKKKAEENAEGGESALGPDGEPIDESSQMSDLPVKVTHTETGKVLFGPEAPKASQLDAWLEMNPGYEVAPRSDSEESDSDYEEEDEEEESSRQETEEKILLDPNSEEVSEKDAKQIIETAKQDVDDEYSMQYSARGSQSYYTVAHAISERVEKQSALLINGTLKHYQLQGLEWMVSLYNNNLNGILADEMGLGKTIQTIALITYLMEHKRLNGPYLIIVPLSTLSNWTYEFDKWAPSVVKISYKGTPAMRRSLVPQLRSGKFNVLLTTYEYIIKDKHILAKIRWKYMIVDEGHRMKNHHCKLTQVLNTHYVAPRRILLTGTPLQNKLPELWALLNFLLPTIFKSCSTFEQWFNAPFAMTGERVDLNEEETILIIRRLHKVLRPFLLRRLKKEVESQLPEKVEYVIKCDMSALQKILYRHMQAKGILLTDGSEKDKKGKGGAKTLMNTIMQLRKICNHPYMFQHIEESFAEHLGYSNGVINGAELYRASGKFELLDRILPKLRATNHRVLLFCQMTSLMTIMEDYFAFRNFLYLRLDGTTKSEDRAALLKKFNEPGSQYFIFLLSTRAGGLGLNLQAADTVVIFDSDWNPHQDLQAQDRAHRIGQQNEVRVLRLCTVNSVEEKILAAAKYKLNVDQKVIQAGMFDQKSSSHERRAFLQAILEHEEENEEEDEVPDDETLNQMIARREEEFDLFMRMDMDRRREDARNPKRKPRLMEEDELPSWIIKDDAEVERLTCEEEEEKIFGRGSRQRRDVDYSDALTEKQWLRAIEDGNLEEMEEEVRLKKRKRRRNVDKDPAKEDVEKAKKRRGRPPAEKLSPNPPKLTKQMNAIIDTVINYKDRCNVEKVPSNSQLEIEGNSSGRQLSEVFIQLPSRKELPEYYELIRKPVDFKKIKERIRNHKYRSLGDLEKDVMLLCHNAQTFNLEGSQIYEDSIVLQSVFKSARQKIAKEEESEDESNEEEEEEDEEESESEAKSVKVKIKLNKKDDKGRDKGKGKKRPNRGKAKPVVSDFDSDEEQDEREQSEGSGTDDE
Chain of Glucose-6-phosphate 1-dehydrogenase (P11413 whole entry, the tested form may be a part): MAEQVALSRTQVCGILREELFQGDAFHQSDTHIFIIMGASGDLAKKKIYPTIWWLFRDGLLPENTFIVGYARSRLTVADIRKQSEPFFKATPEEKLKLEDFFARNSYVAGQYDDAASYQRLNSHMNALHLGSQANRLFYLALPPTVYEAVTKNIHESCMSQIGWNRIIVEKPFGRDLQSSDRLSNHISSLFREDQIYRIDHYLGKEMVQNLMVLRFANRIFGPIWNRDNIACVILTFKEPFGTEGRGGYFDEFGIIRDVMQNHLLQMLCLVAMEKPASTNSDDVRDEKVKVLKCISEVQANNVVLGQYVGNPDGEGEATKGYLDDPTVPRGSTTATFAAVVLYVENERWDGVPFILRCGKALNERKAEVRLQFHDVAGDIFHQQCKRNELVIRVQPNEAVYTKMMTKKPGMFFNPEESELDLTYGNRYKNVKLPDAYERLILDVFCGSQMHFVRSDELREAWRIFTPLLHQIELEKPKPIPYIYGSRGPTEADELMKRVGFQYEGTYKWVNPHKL

## O=C(NCCCn1ccnc1)C(=O)NCC1OCCCN1S(=O)(=O)c1ccccc1 (stereo not given)
[1]
  EC50: > 120 µM (not active)
[2]
  EC50: 17.5 µM (active)
[3]
  EC50: > 120 µM (not active)
[4]
  AC50: 80 µM (active)

## COc1ccccc1/C=C/C=N/NC(=O)c1cc(-c2ccco2)[nH]n1
[5]
  IC50: 19.5 µM (active)
[6]
  IC50: 41.2 µM (active)
[7]
  IC50: 80 µM (inactive)

## CCOc1ccc(NC(=S)N(CCCN2CCCC2)Cc2cccn2Cc2ccc(Cl)cc2)cc1
[8]
  AC50: 46.1 µM (active)

## CC1=CC(C)(C)Nc2ccc(OC(=O)CN3C(=O)c4cccc5cccc(c45)C3=O)cc21
[9]
  IC50: 33 µM (active)
[10]
  IC50: 64.2 µM (inactive)
[11]
  IC50: 6.95 µM (active)

## O=C(CNS(=O)(=O)c1ccccc1)OCC(=O)c1ccc(OC(=O)c2ccccc2)cc1
[12]
  EC50: > 120 µM (not active)
[13]
  EC50: 11.7 µM (active)
H4
  EC50: > 120 µM (not active)
[14]
  EC50: > 91.2 µM (inactive)
[15]
  EC50: > 91.2 µM (inactive)

## CCC(CC)NCc1ccc2c(c1)c1ccccc1n2CC
[16]
  CC50: 100 µM (active)
[17]
  IC50: 133 µM (active)

## O=C(NC1CCCCC1)C(c1ccnc2ccccc12)n1c(=O)c(-c2ccco2)nc2ccccc21 (stereo not given)
[11]
  IC50: 2.23 µM (active)

## COc1cc(OC)c(C(=O)Nc2cccnc2)cc1OC
[18]
  AC50: 1.81 µM (active)

## O=C(c1ccc(Br)s1)N1CCN(Cc2ccc3c(c2)OCO3)CC1
[18]
  AC50: 1.64 µM (active)

## N#CC(C#N)c1ccnc2ccccc12
HEK293
  AC50: 11.5 µM (active)
Interleukin-8 [19]
  IC50: 40.4 µM (inactive)
Interleukin-8 [20]
  IC50: > 79 µM (inactive)

## CCn1c(=O)c2c(cnn2C)c2ccccc21
HEK293
  AC50: 35.3 µM (active)
Interleukin-8 [19]
  IC50: > 79 µM (inactive)
Interleukin-8 [20]
  IC50: 46.2 µM (inactive)

## Cn1ncc(Cl)c1C(=O)Nc1ccc2c(c1)CCC2
[21]
  CC50: 41.5 µM (active)
cells
  IC50: > 67.5 µM (inactive)
[22]
  IC50: > 67.5 µM (inactive)

## Clc1ccc(-c2nc3ccc(Br)cn3c2Cc2ccsc2)cc1
cells
  IC50: > 67.5 µM (inactive)
[22]
  IC50: > 67.5 µM (inactive)

## CCC[C@H]1CN(Cc2cccnc2)C(=O)[C@@H]1CC(=O)Nc1ccc(Br)cc1
[23]
  IC50: 8.41 µM (active)
[24]
  IC50: 83.3 µM (inactive)
[25]
  IC50: 3.49 µM (active)
